One may read the inhibition as the change of the read-out against control, counted positive when it falls. Lower therefore signals a weak effect.

We go through seven compounds from ChEMBL document CHEMBL1146378, “Synthesis and cytotoxicity of novel fatty acid-nucleoside conjugates” (2007).

Calls of active or inactive are those of the source. The rule behind the calls is not given here.

What all share (format): functional
Assay [1] deals with A549. The experiment in a line: Cytotoxicity against human A549 cells at 200 uM after 48 hrs by MTT assay. The settings on record: for inhibition at 200 µM: A549, 48 h. A general note: Tetrazolium dyes change colour on reduction, which living cells bring about.
Assay [2] relates to EC9706. Kind of assay: (§1) Cytotoxicity against human Ec9706 cells at 100 uM after 48 hrs by MTT assay.
The subject of assay [3] is A549. The experiment in a line: Cytotoxicity against human A549 cells at 400 uM after 48 hrs by MTT assay. The settings on record: for inhibition at 400 µM: A549, 48 h.
Assay [4] has as its system EC9706. The experiment in a line: (§2) Cytotoxicity against human Ec9706 cells at 200 uM after 48 hrs by MTT assay.
The test system of assay [5] is A549. Kind of assay: Cytotoxicity against human A549 cells at 100 uM after 48 hrs by MTT assay. The settings on record: for inhibition at 100 µM: A549, 48 h.
For assay [6], the system named is EC9706. The experiment in a line: (§3) Cytotoxicity against human Ec9706 cells at 400 uM after 48 hrs by MTT assay.
The test system of assay [7] is EC9706. Kind of assay: (§4) Cytotoxicity against human Ec9706 cells at 50 uM after 48 hrs by MTT assay.
The subject of assay [8] is A549. Kind of assay: Cytotoxicity against human A549 cells at 50 uM after 48 hrs by MTT assay. The settings on record: for inhibition at 50 µM: A549, 48 h.
Assay [9] can be described thus: as §2. The settings on record: EC9706, 48 h.
The nature of assay [10]: as §3. The following applies: EC9706, 48 h.
Assay [11] is described as follows: as §1. The settings on record: EC9706, 48 h.
Assay [12] in a line: as §4. The following applies: EC9706, 48 h.

As to `O=c1c(F)cn([C@H]2CCCO2)c(=O)n1CCO`, the outcome with A549 [1], with EC9706 [2], in the assay with A549 [3], with EC9706 [4], in the assay with A549 [5] and in the assay on EC9706 [6] was inactive.

On to `CCCCCCCCCCCC(=O)OCCn1c(=O)c(F)cn([C@H]2CCCO2)c1=O`, for which the result with EC9706 [2], with EC9706 [7], with A549 [8] and in the assay on A549 [5] was inactive.

For the compound `O=c1[nH]c(=O)n(C2CCCO2)cc1F` (stereo not given) [TEGAFUR], the inhibition at 200 µM worked out at 15.2% in the assay with A549 [1] and 7.8% in assay [9]. For the same compound, the result with EC9706 [2] was inactive. Moreover, the inhibition at 400 µM in the assay with A549 [3] came to 17.8%; in [10], 17.4%. The inhibition at 100 µM in the assay with A549 [5] turned out to be 12.7%.

As to `CCCCC/C=C\C/C=C\C/C=C\C/C=C\CCCC(=O)OCCn1c(=O)c(F)cn([C@H]2CCCO2)c1=O`, the inhibition at 200 µM is 78.2% in the assay with A549 [1] and 59.9% in assay [9]. Also, the inhibition at 100 µM in [11] was 30.8%; in the assay with A549 [5], 33.8%. Moreover, the inhibition at 50 µM in [12] came to 19.3%; with A549 [8], 1.6%. Also, the inhibition at 400 µM in the assay on A549 [3] is 92.1%; in [10] it was 69.9%.

With `CCCCCCCC/C=C\CCCCCCCC(=O)OCCn1c(=O)c(F)cn([C@H]2CCCO2)c1=O`, the inhibition at 100 µM amounted to 4.9% in assay [11] and 4.8% with A549 [5]. Besides, the results for the inhibition at 50 µM (in assay [12]; in the assay on A549 [8]) were 3.7% and 2.5%, respectively.

For `CCCCC/C=C\C/C=C\CCCCCCCC(=O)OCCn1c(=O)c(F)cn([C@H]2CCCO2)c1=O`, the inhibition at 200 µM with A549 [1] was 24.7%; in assay [9] it was 31.9%. Further, the figures for the inhibition at 100 µM (in assay [11]; in the assay with A549 [5]) were 14.4% and 11%, respectively. In addition, in the assay with EC9706 [7], the result was inactive. In the assay on A549 [8], this compound displayed an inhibition at 50 µM of 1.8%. The inhibition at 400 µM in the assay with A549 [3] is 90.7%; in assay [10], 54.4%.

For `CCCCCCCCCCCCCCCCCC(=O)OCCn1c(=O)c(F)cn([C@H]2CCCO2)c1=O`, the outcome in the assay with EC9706 [2], with EC9706 [7], with A549 [8] and in the assay on A549 [5] was inactive.
